Source: ChEMBL document CHEMBL1201862, “PubChem BioAssay data set” (2004)
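Following 48 hours of exposure in 96-well plates, responses at five concentrations were used to interpolate endpoints linearly. GI50 is the concentration that inhibits growth by half.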 Calls of active or inactive are those of the source. Cut-off read from the data, not from the text of the source: active = GI50 up to about 1.1 µM and inactive = higher.

Columns and labels:
Assay in all cases: NCI-60 cell line screen, 48 h
BT-549 = tested on: BT-549
SNB-19 = tested on: SNB-19
SR = tested on: SR
NCI-H460 = tested on: NCI-H460
MDA-N = tested on: MDA-N
SW-620 = tested on: SW-620
PC-3 = tested on: PC-3
A549 = tested on: A549
UACC-257 = tested on: UACC-257
TK-10 = tested on: TK-10
HOP-62 = tested on: HOP-62
MDA-MB-435 = tested on: MDA-MB-435
DU-145 = tested on: DU-145
SK-MEL-2 = tested on: SK-MEL-2
MDA-MB-231 = tested on: MDA-MB-231
NCI/ADR-RES = tested on: NCI/ADR-RES

Measured: GI50

Cc1ccc(S(=O)(=O)NNC2Oc3cc4c(cc3C(c3ccccc3O)C2C)OCO4)cc1 (configuration not stated)
inactive: BT-549 13 µM | SNB-19 12.7 µM | SR 13.3 µM | NCI-H460 12.1 µM | MDA-N 12.3 µM | SW-620 13.7 µM | PC-3 10.1 µM | A549 8.36 µM | UACC-257 10.8 µM | TK-10 15.5 µM | HOP-62 15.1 µM | MDA-MB-435 13 µM | DU-145 13 µM | SK-MEL-2 9.62 µM | MDA-MB-231 16 µM

Cn1c(=O)ccc2c(=O)c3ccccc3oc21
inactive: NCI/ADR-RES > 100 µM | SNB-19 > 100 µM | SR > 100 µM | NCI-H460 > 100 µM | MDA-N > 100 µM | SW-620 > 100 µM | PC-3 > 100 µM | A549 > 100 µM | TK-10 > 100 µM | HOP-62 > 100 µM | MDA-MB-435 > 100 µM | DU-145 > 100 µM | SK-MEL-2 > 100 µM | MDA-MB-231 > 100 µM

CC1(C)CC(=O)C2=C(C1)NC1=C(C(=O)CC(C)(C)C1)C2c1ccc([N+](=O)[O-])cc1
inactive: BT-549 > 100 µM | SNB-19 > 100 µM | NCI-H460 > 100 µM | MDA-N > 100 µM | SW-620 > 100 µM | PC-3 > 100 µM | A549 > 100 µM | UACC-257 > 100 µM | TK-10 > 100 µM | HOP-62 > 100 µM | MDA-MB-435 > 100 µM | DU-145 > 100 µM | SK-MEL-2 > 100 µM | MDA-MB-231 > 100 µM

CC(C)(CCCCC(C)(C)NC1=NCCO1)NC1=NCCO1
inactive: NCI/ADR-RES > 10 µM | SNB-19 > 10 µM | SR > 10 µM | NCI-H460 > 10 µM | MDA-N > 10 µM | SW-620 > 10 µM | PC-3 > 10 µM | A549 > 10 µM | TK-10 > 10 µM | HOP-62 > 10 µM | MDA-MB-435 > 10 µM | DU-145 > 10 µM | SK-MEL-2 > 10 µM | MDA-MB-231 > 10 µM

COc1ccc(C(c2cc3c(cc2O)OCO3)N2CCOCC2)cc1OC (configuration not stated)
inactive: BT-549 5.28 µM | NCI/ADR-RES 5.89 µM | SNB-19 16.7 µM | SR 1.89 µM | NCI-H460 22 µM | SW-620 2.72 µM | PC-3 11.1 µM | A549 22.4 µM | UACC-257 15.7 µM | TK-10 13.4 µM | HOP-62 15.7 µM | MDA-MB-435 11.3 µM | DU-145 12.1 µM | SK-MEL-2 16.6 µM | MDA-MB-231 3.5 µM
